{"source": "patent US20230257429A1", "about": "“PEPTIDE ADJUVANT FOR ITS THERAPEUTIC APPLICATIONS IN VIRAL AND TUMOUR VACCINE DEVELOPMENT AND CANCER IMMUNOTHERAPY AND AUTOIMMUNE DISEASE DIAGNOSIS AND TREATMENTS” (National University of Singapore, priority 2020, published 2023)", "type_in_all_cases": "cell-based, human", "key": {"PBMC [1]": {"tested_on": "PBMC", "assay": "PBMC activation, TNFα and IL-1β ELISA", "conditions": "PBMC stimulated 24 hr, TNFα in media", "procedure": "Buffy coat fractions were obtained from healthy blood donors at the Singapore Health Sciences Authority, with Institutional ethics approval, and PBMC were isolated using Ficoll-Paque (GE Healthcare). To isolate monocytes, PBMC were re-suspended to 1×10^7 cells/ml in the RPMI medium contained 5% (v/v) BCS and incubated for 1 hr in T75 flasks (20 ml/flask). Monocytes that adhered were harvested. To culture macrophages and DC [Cao, W., et al., Blood 107: 2777-2785, (2006), incorporated herein by reference], monocytes were resuspended to 1×10^6 cells/ml and cultured in 6-well plates (2 ml/well). Macrophages were cultured by adding M-CSF to 20 ng/ml and DC were cultured with 20 ng/ml GM-CSF and 40 ng/ml IL-4. M-CSF, GM-CSF and IL-4 were obtained from R&D Systems (Mineapolis, Minn.). Cells were cultured for 6 days with half of the media being replenished every two days.\nPurified proteins in PBS (30 μg/ml) were coated in triplicates in 96-well plates (50 μl/well) for 12 hr and PBMC (3×10^6 cells/ml), monocytes (1×10^6 cells/ml), macrophages (0.5×10^6 cells/ml) or DC (0.5×10^6 cells/ml) were re-suspended in macrophage serum-free medium containing penicillin and streptomycin and cultured for 24 hr in these plates at 100 μl/well. Where TLR ligands were used to stimulate these cells, they were added to the media: LPS (500 ng/ml for DC and macrophages and 10 ng/ml for PMBC and monocytes, InvivoGen), flagellin (1 μg/ml, InvivoGen), lipoteichic acid (LTA, 10 μg/ml). Cell activation was determined by measuring TNFα and IL-1β in the culture media using ELISA kits (Invitrogen)."}, "PBMC [2]": {"tested_on": "PBMC", "assay": "Peptide binding to and penetration of PBMC, flow cytometry", "conditions": "PBMC, peptide 200 μg/ml, 1 hr at 4° C.", "summary_of_the_method": "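PBMC (3×10^6/ml, serum-free macrophage medium) incubated 1 h with biotinylated-detected peptides at 200 μg/ml, at 37 °C or 4 °C. Streptavidin-AF488 flow cytometry with viability dye, with or without permeabilization to separate surface binding from internalization; monocytes, T and B cells gated separately.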"}, "dendritic cells (DC) [3]": {"tested_on": "dendritic cells (DC)", "assay": "Dendritic cell penetration, confocal microscopy", "procedure": "DC were harvested and cultured overnight on glass coverslips. The cells were first incubated for 1, 5, 15, 30 or 60 min with P2M6 (200 μg/ml) at 4° C. and then fixed in 4% (w/v) paraformaldehyde (PFA) for 20 min. Cells were permeabilized for 30 min in 0.1% (w/v) saponin and then incubated for 1 hr with streptavidin-AF488 (50 μg/ml). Cells were then mounted for imaging analysis. Alternatively, P2M6 was pre-incubated for 1 hr on ice with streptavidin-AF488 at 50 μg/ml and the peptide-streptavidin complexes were at 1/10 dilution incubated with DC for 1, 5, 15, 30 or 60 min at 4° C. and the cells were, after washing, directly mounted without fixation or permeabilization.\nIn another experiment set up, DC (2×10^5/ml) were incubated for 1 hr at 4° C. with P2M6 at different concentrations (10, 25, 50, 100, or 200 μg/ml). Cells were fixed and permeabilized to incubate for 1 hr with streptavidin-AF488 (50 μg/ml). Cells were washed and mounted for imaging analysis. Alternatively, Different concentrations of P2M6 ([…]) were pre-incubated for 1 hr on ice with streptavidin-AF488 (500 μg/ml). The preformed complexes were at 1/10 dilutions incubated with DC for 1 hr at 4° C. The cells were, after washing, directly mounted without fixation or permeabilization.\nAll cells were mounted using the VectaShield mounting medium containing DAPI (Vector Laboratories). Cells were analyzed using the FluoView FV3000 confocal microscope equipped with a 100× oil objective (aperture 1.45) and Cool/SNAP HQ2 image acquisition camera (Olympus). Images were captured with the FV-ASW 1.6b software and analyzed using the Imaris software (Bitplane AG)."}, "dendritic cells (DC) [4]": {"tested_on": "dendritic cells (DC)", "assay": "DC maturation, surface markers by flow cytometry", "conditions": "200 μg/ml, 48 hr", "procedure": "In some experiments, to detect surface proteins on cultured DC, cells were harvested at day 6 and re-suspended at 1×10^5/ml in macrophage serum free medium (Thermo Fisher Scientific, cat #12065074). Cells were incubated for 1 hr on ice with fluorescent antibodies specific for CD14 (PE), CD1a (PE), or isotype-matched IgG. Cells were washed and analysed by flow cytometry. The harvested DC were also resuspended in the medium at 5×10^4/ml and cultured for 48 hr with LPS (0.5 μg/ml), P2M6 (200 μg/ml) or, as a control, PBS. Cells were then incubated with fluorescently tagged antibodies specific for MHC class II, CD40, CD80, CD83, CD86, and corresponding isotype controls. Cells were analysed by flow cytometry.\nNCL-P2 was previously shown to activate DC as judged by TNFα induction [Wu, S., et al., Cell Death Dis 12: 477 (2021)]. Whether P2+G effectively activates these cells into mature antigen-presenting cells (APC) for effective T cell activation has not been examined. To this end, DC were stimulated for 48 hr with P2+G (200 μg/ml) or, as a positive control, LPS (0.5 μg/ml). As a negative control, DC were cultured without specific stimulation by adding equivalent volumes of PBS. DC were cultured from monocytes and were typically CD14^lo/− CD1a^hi [Cao, W., et al., Blood 107: 2777-2785 (2006)]. Cells were examined for surface expression of MHC class II, CD40, CD80, CD83 and CD86."}, "[5]": {"tested_on": "autologous CD4 and CD8 T cells", "assay": "Antigen-loaded DC co-culture with autologous lymphocytes, proliferation", "conditions": "DC:T 1:5, 2 weeks co-culture, CellTrace Violet", "procedure": "PBMC were isolated from healthy blood donors from which monocytes were isolated to culture DC and the remaining cells (mostly lymphocytes) were stored frozen as a source of autologous lymphocytes. DC were then incubated for 24 hr with P2+G, IPA1E2 or the IPA1E2-P2+G fusion polypeptide (SEQ ID NO: 58) in round bottom 96-well plates (5×10^4 cells/well) without adding additional adjuvants. The frozen lymphocytes were revived and labelled with CellTrace Violet (2.5 μM) for 10 min at 37° C. and then added to the DC wells at 2.5×10^5 cells/well (DC:T ratio=1:5). After 2 weeks of co-culture, the proliferation of CD4+ and CD8+ T cell and CD19+ B cell was analyzed by flow cytometry."}, "dendritic cells (DC) [6]": {"tested_on": "dendritic cells (DC)", "assay": "Dendritic cell penetration, confocal microscopy", "conditions": "data not shown"}}, "note": "“Also recorded” adds a separate entry of the source."}
{"sequence": "GGFGGRGGGRGGRGGFGGRGGRGGFGGRGGFRGGRGG (NCL-P2+G)", "values": [{"measurement": "adjuvant (alarmin) activity compared with NCL-P2", "setting": "PBMC [1]", "result": "significantly higher alarmin activity"}, {"measurement": "increase in adjuvant (alarmin) activity compared with NCL-P2", "setting": "PBMC [1]", "result": 3, "unit": "fold"}, {"measurement": "CPP activity compared with NCL-P2", "setting": "PBMC [2]", "result": "slightly higher CPP activity"}, {"measurement": "CPP activity compared with NCL-P2", "setting": "PBMC [2]; listed as P2+G", "result": "slightly increased their CPP activities"}, {"measurement": "carrying cargo protein streptavidin into DC cytoplasm", "setting": "dendritic cells (DC) [3]", "result": "can carry cargo proteins across the cell membrane into the cytoplasm; also recorded: carry a cargo protein streptavidin into the DC cytoplasm"}, {"measurement": "time of incubation within which DC were penetrated", "setting": "dendritic cells (DC) [3]; 200 μg/ml, 4° C.", "result": "≤ 1", "unit": "min"}, {"measurement": "DC penetration over time", "setting": "dendritic cells (DC) [3]; 1, 5, 15, 30 and 60 min, 4° C.", "result": "increased progressively from 5 to 60 min"}, {"measurement": "DC penetration at 10 μg/ml of P2+G", "setting": "dendritic cells (DC) [3]; 1 hr at 4° C.", "result": "not detectable; also recorded: no detectable DC penetration"}, {"measurement": "DC penetration at 25 μg/ml of P2+G", "setting": "dendritic cells (DC) [3]; 1 hr at 4° C.", "result": "low level of DC penetration"}, {"measurement": "time to saturation of DC penetration", "setting": "dendritic cells (DC) [3]; P2+G 200 μg/ml, on ice", "result": 30, "unit": "min"}, {"measurement": "intracellular localisation in DC", "setting": "dendritic cells (DC) [3]; confocal microscopy", "result": "penetrated into the nucleoli faster than it penetrated into the cytoplasm"}, {"measurement": "change of intracellular pool in DC with increasing P2+G concentration", "setting": "dendritic cells (DC) [3]; free peptide 25 to 200 μg/ml, streptavidin-bound 10 to 100 μg/ml", "result": "increased following increasing concentrations"}, {"measurement": "DC maturation (MHC class II, CD40, CD80, CD83, CD86)", "setting": "dendritic cells (DC) [4]", "result": "effectively activated DC maturation"}, {"measurement": "T cell proliferation / activation induced by peptide-loaded DC", "setting": "[5]", "result": "might not induce significant T cell activation to itself"}, {"measurement": "carrying ovalbumin into DC cytoplasm", "setting": "dendritic cells (DC) [6]", "result": "carried ovalbumin into DC cytoplasm"}]}
